Test results as given in ChEMBL document CHEMBL3627618, “Rethinking the old antiviral drug moroxydine: Discovery of novel analogues as anti-hepatitis C virus (HCV) agents” (Bioorg Med Chem Lett, 2015).
Calls of active or inactive are those of the source. The rule behind the calls is not given here.

What was measured:
[1] = Cytotoxicity against human HuH7-J20 cells expressing secreted alkaline phosphatase reporter gene assessed as cell viability at 10 uM incubated for 1 hr by WST-1 assay; assay type: cell-based; settings: huh-7, 1 h
Hepatitis C virus [2] = assay: Antiviral activity against HCV pseudotyped particles infected in human HuH7 cells assessed as reduction of viral entry preincubated with cells for 1 hr followed by viral inoculation for 3 hrs by luciferase reporter gene assay; assay type: functional, organism-based; settings: Hepacivirus hominis; Huh-7
Hepatitis C virus [3] = assay: Antiviral activity against HCV JFH1 infected in human HuH7-J20 cells assessed as inhibition of viral life cycle by measuring secreted alkaline phosphatase level […] preincubated with cells for 1 hr followed by viral inoculation for 3 hrs measured at 72 hrs relative to control; assay type: functional; settings: Hepacivirus hominis; genotype 2a JFH-1; Huh-7
Hepatitis C virus [4] = assay: (§1) Antiviral activity against HCV JFH1 infected in human HuH7-J20 cells assessed as inhibition of viral life cycle by measuring secreted alkaline phosphatase level preincubated with cells for 1 hr followed by viral inoculation for 3 hrs measured at 72 hrs; assay type: functional, cell-based, Hepacivirus hominis; settings: for EC50: genotype 2a JFH-1, Huh-7
[5] = Selectivity index, ratio of CC50 for human HuH7-J20 cells expressing secreted alkaline phosphatase reporter gene preincubated for 1 hr followed by fresh drug administration every 24 hrs for 48 hrs to EC50 for HCV JFH1 infected in human HuH7-J20 cells preincubated with cells for 1 hr followed by viral inoculation for 3 hrs and fresh drug administration every 24 hrs at 1/10th of initial concentration for 48 hrs measured at 72 hrs; parameters: species or system Huh-7
Hepatitis C virus [6] = assay: as §1, with “3 hrs and fresh drug administration every 24 hrs at 1/10th of initial concentration for 48 hrs measured at” for “3 hrs measured at”; assay type: functional, cell-based, Hepacivirus hominis; settings: genotype 2a JFH-1, Huh-7
[7] = Selectivity index, ratio of CC50 for human HuH7-J20 cells expressing secreted alkaline phosphatase reporter gene incubated for 1 hr to EC50 for HCV JFH1 infected in human HuH7-J20 cells preincubated with cells for 1 hr followed by viral inoculation for 3 hrs measured at 72 hrs; parameters: species or system Huh-7
[8] = Cytotoxicity against human HuH7-J20 cells expressing secreted alkaline phosphatase reporter gene assessed as cell viability preincubated for 1 hr followed by fresh drug administration every 24 hrs at 1/10th of initial concentration for 48 hrs by WST-1 assay; assay type: cell-based, Huh-7
[9] = Cytotoxicity against human HuH7-J20 cells expressing secreted alkaline phosphatase reporter gene assessed as cell viability incubated for 1 hr by WST-1 assay; assay type: cell-based, Huh-7
[10] = Cytotoxicity against human HuH7 assessed as cell viability after 24 hrs by WST-1 assay; assay type: cell-based; settings: huh-7, 24 h
Hepatitis C virus [11] = assay: Ratio of EC50 for HCV JFH1 infected in human HuH7-J20 cells preincubated with cells for 1 hr followed by viral inoculation for 3 hrs measured at 72 hrs to EC50 for HCV JFH1 infected in human HuH7-J20 cells preincubated with cells for 1 hr followed by viral inoculation for 3 hrs and fresh drug administration every 24 hrs at 1/10th of initial concentration for 48 hrs measured at 72 hrs; assay type: functional, Hepacivirus hominis, genotype 2a JFH-1, Huh-7
Hepatitis C virus [12] = assay: Antiviral activity against HCV JFH1 sub genomic replicon infected in human HuH7 cells assessed as inhibition of viral RNA replication at 10 uM measured after 24 hrs by luciferase reporter gene assay; assay type: functional, Hepacivirus hominis; settings: genotype 2a JFH-1, Huh-7, 24 h

CC(C)(C)OC(=O)/N=C(\NCc1ccccc1)NC(=O)N1CCN(c2ccccc2)CC1
Activity [1]: Non-toxic

CCOC(=O)CNC(=O)NC(=N)N.Cl
Activity [1]: Non-toxic

Cl.N=C(NCc1ccccc1)NC(=O)N1CCN(c2ccccc2)CC1
Activity (Hepatitis C virus [2]): inactive
Activity [1]: Non-toxic

N=C(N)NC(=N)NCc1ccccc1
inhibition (Hepatitis C virus [3]): inactive

N=C(N)NC(=N)Nc1ccccc1
inhibition (Hepatitis C virus [3]): inactive

Cl.N=C(NCc1ccccc1)NC(=O)N1CCN(c2ccc(F)cc2)CC1
Activity (Hepatitis C virus [2]): inactive
Activity [1]: Non-toxic

Cc1ccc(N2CCN(C(=O)NC(=N)Nc3ccccc3)CC2)cc1.Cl
EC50 (Hepatitis C virus [4]): 9.35 µM
Activity (Hepatitis C virus [2]): inactive
Ratio CC50/EC50 [5]: 4.4
EC50 (Hepatitis C virus [6]): 4.7 µM
Ratio CC50/EC50 [7]: 2.82
CC50 at 48 h [8]: 21 µM
CC50 at 1 h [9]: 26.4 µM

Cl.N=C(NC(=O)N1CCN(c2ccc([N+](=O)[O-])cc2)CC1)Nc1ccccc1
Activity (Hepatitis C virus [2]): inactive
Activity [1]: Non-toxic

C=CCNC(=O)NC(=N)NCc1ccccc1.Cl
Activity (Hepatitis C virus [2]): inactive
Activity [1]: Non-toxic

Cl.N=C(NCc1ccccc1)NC(=O)N1CCCC1
Activity (Hepatitis C virus [2]): inactive
Activity [1]: Non-toxic

Cl.N=C(NC(=O)N1CCN(c2ccc(Cl)cc2)CC1)Nc1ccccc1
Activity (Hepatitis C virus [2]): inactive
Activity [1]: Non-toxic

Cl.N=C(NC(=O)N1CCN(c2ccc(C34CC5CC(CC(C5)C3)C4)cc2)CC1)Nc1ccc(Cl)cc1
EC50 (Hepatitis C virus [4]): 9.8 µM
Activity (Hepatitis C virus [2]): inactive
Ratio CC50/EC50 [5]: 5.54
EC50 (Hepatitis C virus [6]): 13.9 µM
Activity [10]: Non-toxic
Ratio CC50/EC50 [7]: 7.45
CC50 at 48 h [8]: 77 µM
CC50 at 1 h [9]: 73 µM

Cl.N=C(NC(=O)N1CCN(c2ccccc2)CC1)Nc1ccccc1
EC50 (Hepatitis C virus [4]): 59.5 µM
Activity (Hepatitis C virus [2]): inactive
Ratio CC50/EC50 [5]: >3.4
EC50 (Hepatitis C virus [6]): 8.7 µM
Ratio CC50/EC50 [7]: 0.5
CC50 at 48 h [8]: > 30 µM
CC50 at 1 h [9]: > 30 µM

N=C(N)NC(=N)N1CCOCC1
inhibition (Hepatitis C virus [4]; Hepacivirus hominis, genotype 2a JFH-1, Huh-7): inactive

N=C(N)NC(=N)Nc1ccc(F)cc1
inhibition (Hepatitis C virus [3]): inactive

Cc1ccc(N2CCN(C(=O)NC(=N)Nc3ccc(Cl)cc3)CC2)cc1.Cl
Activity (Hepatitis C virus [2]): inactive
Activity [1]: Non-toxic

Cl.N=C(NC(=O)N1CCN(c2ccc([N+](=O)[O-])cc2)CC1)Nc1ccc(Cl)cc1
Activity (Hepatitis C virus [2]): inactive
Activity [1]: Non-toxic

Cl.N=C(NCc1ccccc1)NC(=O)N1CCOCC1
Activity (Hepatitis C virus [2]): inactive
Activity [1]: Non-toxic

N=C(N)NC(=N)N1CCN(c2ccccc2)CC1
inhibition (Hepatitis C virus [3]): inactive

CC(C)(C)OC(=O)NC(=N)NC(=O)NCc1ccccc1
EC50 (Hepatitis C virus [4]): 21.9 µM
Ratio CC50/EC50 [5]: 7.99
EC50 (Hepatitis C virus [6]): 6.17 µM
Activity [10]: Non-toxic
Ratio CC50/EC50 [7]: 4.25
CC50 at 48 h [8]: 49.3 µM
Ratio EC50 (Hepatitis C virus [11]): 3
CC50 at 1 h [9]: 92.9 µM

CCOC(=O)CNC(=O)NC(=N)NC(=O)OC(C)(C)C
Activity [1]: Non-toxic

Cl.N=C(N)NC(=O)NCc1ccccc1
EC50 (Hepatitis C virus [4]): 52 µM
Ratio CC50/EC50 [5]: 9.19
EC50 (Hepatitis C virus [6]): 35.3 µM
Ratio CC50/EC50 [7]: 6.23
CC50 at 48 h [8]: 325 µM
CC50 at 1 h [9]: 324 µM

CC(C)(C)OC(=O)/N=C(\NCc1ccccc1)NC(=O)N1CCOCC1
Activity [1]: Non-toxic

Cl.N=C(NC(=O)N1CCN(c2ccccc2)CC1)Nc1ccc(Cl)cc1
EC50 (Hepatitis C virus [4]): 11.2 µM
Activity (Hepatitis C virus [2]): inactive
Ratio CC50/EC50 [5]: 30.4
EC50 (Hepatitis C virus [6]): 1.3 µM
Activity [10]: Non-toxic
Ratio CC50/EC50 [7]: >2.68
inhibition at 10 µM (Hepatitis C virus [12]): ≤ 50%
CC50 at 48 h [8]: 39.7 µM
CC50 at 1 h [9]: > 30 µM

Cl.N=C(NC(=O)N1CCN(c2cc(Cl)cc(Cl)c2)CC1)Nc1ccc(Cl)cc1
EC50 (Hepatitis C virus [4]): 10.4 µM
Activity (Hepatitis C virus [2]): inactive
Ratio CC50/EC50 [5]: 20.2
EC50 (Hepatitis C virus [6]): 1.69 µM
Activity [10]: Non-toxic
Ratio CC50/EC50 [7]: 6.06
CC50 at 48 h [8]: 34.2 µM
CC50 at 1 h [9]: 63 µM

NC(=O)c1ncn([C@@H]2O[C@H](CO)[C@@H](O)[C@H]2O)n1 [RIBAVIRIN]
EC50 (Hepatitis C virus [4]): 30.4 µM
Ratio CC50/EC50 [5]: 0.91
EC50 (Hepatitis C virus [6]): 33.5 µM
Ratio CC50/EC50 [7]: >1
CC50 at 48 h [8]: 30.5 µM
CC50 at 1 h [9]: > 30 µM

Cl.N=C(NCc1ccccc1)NC(=O)N1CCN(c2ccc(Cl)cc2)CC1
EC50 (Hepatitis C virus [4]): 45.7 µM
Activity (Hepatitis C virus [2]): inactive
Ratio CC50/EC50 [5]: 14.4
EC50 (Hepatitis C virus [6]): 2.41 µM
Activity [10]: Non-toxic
Ratio CC50/EC50 [7]: 1.4
inhibition at 10 µM (Hepatitis C virus [12]): ≤ 50%
CC50 at 48 h [8]: 34.7 µM
CC50 at 1 h [9]: 64 µM

Cl.N=C(N)NC(=O)N1CCOCC1
Activity [1]: Non-toxic

Cl.N=C(N)NC(=O)NCCCCN
Activity [1]: Non-toxic
